Among the data in PubChem BioAssay (NCI) are TGI and GI50 values, retold here.

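Compound exposure: 48 hours, 5 concentrations, 96-well plates. GI50: concentration for 50% inhibition of growth. TGI marks complete inhibition of growth.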 Where only a bound is given, the exact number is not on record here.

In general, TGI refers to the concentration giving total growth inhibition. High values mean less potent growth arrest, low ones more potent growth arrest. As usually defined, the GI50 is the concentration that inhibits growth by half.

Among the test systems are MCF7 breast; HS 578T breast; M14 melanoma; MDA-MB-435; MDA-MB-231 breast; HT29 colon; UACC-257 melanoma; OVCAR-8 ovarian; SF-268 CNS; SK-MEL-2 melanoma.
Test in all cases: DTP human tumour cell line panel, 48 h

With `NP1(Oc2ccc(F)cc2)=NP(N)(Oc2ccc(F)cc2)=NP(Oc2ccc(F)cc2)(Oc2ccc(F)cc2)=N1` (stereo not given), the total growth inhibition concentration (TGI) in the assay with MCF7 breast is 10.9 µM; in the assay on HS 578T breast it was 17.7 µM; with M14 melanoma it was 19.4 µM; in the assay on MDA-MB-435, 19.3 µM; with MDA-MB-231 breast, 23.4 µM; in the assay with HT29 colon, 17.2 µM. Moreover, the concentration for total growth inhibition (TGI) in the assay on UACC-257 melanoma was 24.7 µM; in the assay on OVCAR-8 ovarian, 14.9 µM; in the assay with SF-268 CNS, 26.7 µM.

Turning to `CC1=C(C(=S)Nc2ccc(Cl)c(C(=O)OC(C)C)c2)SCCO1`, the TGI in the assay on MCF7 breast is above 100 µM; in the assay on HS 578T breast, 75.1 µM; with M14 melanoma, 44 µM; in the assay with SK-MEL-2 melanoma it was 48.9 µM; in the assay with MDA-MB-435, 42.7 µM; with MDA-MB-231 breast it was 33.2 µM. For the same compound, the TGI with HT29 colon is 32.6 µM; with UACC-257 melanoma, 47 µM; in the assay with OVCAR-8 ovarian, 46.5 µM; in the assay on SF-268 CNS, 60.8 µM.

On to `O=C1c2ccccc2C(=O)c2c1ccc1c3ccccc3n(-c3ccccc3)c21`, for which the TGI in the assay with MCF7 breast was above 55.6 µM; with HS 578T breast, 42.7 µM; in the assay on M14 melanoma, 29.8 µM; in the assay with SK-MEL-2 melanoma, 46.8 µM; with MDA-MB-435, 26 µM; in the assay with MDA-MB-231 breast it was 77.7 µM. The TGI is 29.2 µM in the assay on HT29 colon, 41.7 µM in the assay on UACC-257 melanoma, 44.8 µM with OVCAR-8 ovarian and 54 µM in the assay on SF-268 CNS.

`CC1CCc2c(C(=O)Nc3ncc(Cc4cccc([N+](=O)[O-])c4)s3)csc2C1` (stereo not given): the GI50 with MCF7 breast is 0.268 µM; in the assay on HS 578T breast, 0.72 µM; in the assay with M14 melanoma it was 0.4 µM; in the assay with SK-MEL-2 melanoma, 0.586 µM; in the assay on MDA-MB-435, 0.133 µM; in the assay on MDA-MB-231 breast it was 1.03 µM. The GI50 in the assay with HT29 colon was 0.38 µM; with UACC-257 melanoma, 3.77 µM; in the assay on OVCAR-8 ovarian it was 1.42 µM; with SF-268 CNS it was 1.53 µM. Moreover, the TGI in the assay on MCF7 breast was above 100 µM; in the assay on HS 578T breast it was above 26.2 µM; in the assay on M14 melanoma, above 100 µM; in the assay on SK-MEL-2 melanoma it was above 100 µM; with MDA-MB-435 it was 0.45 µM; with MDA-MB-231 breast, above 100 µM. Besides, the TGI in the assay on HT29 colon, with UACC-257 melanoma, with OVCAR-8 ovarian and in the assay on SF-268 CNS was above 100 µM each time.

`CC(C)(C)n1cc(-c2ccnc(NCCCNS(=O)(=O)c3cccc4ccccc34)c2)c(-c2cccc(O)c2)n1`: the GI50 is 1.91 µM in the assay with MCF7 breast; 1.89 µM in the assay with HS 578T breast; 1.68 µM in the assay with M14 melanoma; 1.88 µM in the assay with SK-MEL-2 melanoma; 1.76 µM with MDA-MB-435; 2.32 µM with MDA-MB-231 breast. Further, the GI50 with UACC-257 melanoma was 2.07 µM; in the assay with OVCAR-8 ovarian it was 2.38 µM; in the assay with SF-268 CNS, 2.77 µM. For the same compound, the TGI in the assay with MCF7 breast amounted to 4.06 µM; in the assay with HS 578T breast, 4.8 µM; with M14 melanoma it was 3.21 µM; in the assay on SK-MEL-2 melanoma, 4.06 µM; in the assay with MDA-MB-435, 3.37 µM; with MDA-MB-231 breast, 5.64 µM. The TGI with UACC-257 melanoma was found to be 4.39 µM; in the assay with OVCAR-8 ovarian it was 6.28 µM; in the assay with SF-268 CNS, 8.02 µM.

`C=C1C(=O)C23C(O)CC4C(C)(C)CCC(O)C4(C)C2CC(OC(C)=O)C1[C@H]3O` (stereo not given in full): the TGI with HS 578T breast worked out at 53.7 µM; with M14 melanoma it was 12.1 µM; with SK-MEL-2 melanoma it was 5.3 µM; with MDA-MB-435 it was 21.4 µM; in the assay with MDA-MB-231 breast, 14.6 µM; with UACC-257 melanoma, 8.38 µM. Moreover, the TGI was determined as 2.83 µM in the assay on OVCAR-8 ovarian and 22.1 µM with SF-268 CNS.

For the compound `CN1CCN(Cc2ccc(NC(=O)c3cncc(C#Cc4c(N)ncc5ccccc45)c3)cc2C(F)(F)F)CC1`, the GI50 is 0.198 µM in the assay with MCF7 breast; 0.64 µM with HS 578T breast; 0.203 µM with M14 melanoma; 0.782 µM with SK-MEL-2 melanoma; 0.291 µM in the assay with MDA-MB-435; 0.336 µM with MDA-MB-231 breast. Besides, the concentration for 50% growth inhibition (GI50) in the assay with HT29 colon is 0.18 µM; in the assay on UACC-257 melanoma, 0.773 µM; with OVCAR-8 ovarian, 0.839 µM; with SF-268 CNS, 0.723 µM. The TGI in the assay on MCF7 breast was 0.853 µM; in the assay on HS 578T breast, 1.86 µM; in the assay on M14 melanoma, 0.885 µM; in the assay with SK-MEL-2 melanoma, 1.72 µM; in the assay with MDA-MB-435, 0.968 µM; with MDA-MB-231 breast, 1.04 µM. Further, the TGI in the assay with HT29 colon was found to be 1.04 µM; in the assay with UACC-257 melanoma, 1.6 µM; with OVCAR-8 ovarian, 1.91 µM; in the assay on SF-268 CNS, 1.56 µM.

Turning to `CNC(=O)c1sc(-n2cnc3cc(OC)c(OC)cc32)cc1OCc1ccccc1C(F)(F)F`, the GI50 with MCF7 breast is above 25 µM; with HS 578T breast, above 25 µM; with M14 melanoma, above 25 µM; in the assay with SK-MEL-2 melanoma, above 25 µM; in the assay on MDA-MB-435, above 25 µM; in the assay on MDA-MB-231 breast, 15.9 µM. Also, the GI50 was above 25 µM with HT29 colon, above 25 µM in the assay on UACC-257 melanoma, above 19.2 µM with OVCAR-8 ovarian and above 25 µM with SF-268 CNS. Moreover, the TGI with MCF7 breast, in the assay with HS 578T breast, in the assay with M14 melanoma, with SK-MEL-2 melanoma, in the assay with MDA-MB-435 and in the assay on MDA-MB-231 breast was above 25 µM in each case. Besides, the TGI in the assay on HT29 colon, in the assay with UACC-257 melanoma, in the assay with OVCAR-8 ovarian and in the assay with SF-268 CNS was above 25 µM each time.

Take `COc1cc([C@H]2OC[C@@H]3C(c4cc(OC)c5c(c4)OCO5)OC[C@H]23)cc(OC)c1OC` (stereo not given in full): the TGI in the assay with MCF7 breast, in the assay with HS 578T breast, in the assay on M14 melanoma, in the assay on SK-MEL-2 melanoma, in the assay on MDA-MB-435 and in the assay with MDA-MB-231 breast was above 100 µM in each case. For the same compound, the TGI with HT29 colon, in the assay on UACC-257 melanoma, in the assay with OVCAR-8 ovarian and in the assay with SF-268 CNS was above 100 µM in each case.
